In ChEMBL document CHEMBL1133843, “3-Aryl-4-aryloyl-1-(1H-imidazol-5-yl)methylpyrrole, a novel class of farnesyltransferase inhibitors” (Bioorg Med Chem Lett, 2001):

The compounds below were run against Protein farnesyltransferase (Homo sapiens, UniProt P49354+P49356) (assay: Inhibition of [3H]FPP incorporation into Ha-ras protein by Farnesyltransferase).
Type: functional

Row | Structure (SMILES) | IC50
1 | CSCC[C@H](NC(=O)c1ccc(CNCc2c[nH]cn2)cc1-c1ccccc1C)C(=O)O | 1.4 nM
2 | Cn1cncc1Cn1cc(C(=O)c2ccc(Oc3ccccc3)cc2)c(-c2cccc3ccccc23)c1 | 4.6 nM
3 | Cc1ccc(C(=O)c2cn(Cc3c[nH]cn3)cc2-c2cccc3ccccc23)cc1 | 65 nM
4 | Cc1ccc(C(=O)c2cn(Cc3c[nH]cn3)cc2-c2ccc3ccccc3c2)cc1 | 2300 nM
5 | O=C(c1ccccc1Br)c1cn(Cc2c[nH]cn2)cc1-c1cccc2ccccc12 | 88 nM
6 | Cc1ccc(C(=O)c2cn(Cc3c[nH]cn3)cc2-c2c3ccccc3cc3ccccc23)cc1 | 470 nM
7 | O=C(c1ccc(Oc2ccccc2)cc1)c1cn(Cc2c[nH]cn2)cc1-c1cccc2ccccc12 | 16 nM
8 | O=C(c1ccccc1)c1cn(Cc2c[nH]cn2)cc1-c1cccc2ccccc12 | 115 nM
9 | O=C(c1ccc(Br)cc1)c1cn(Cc2c[nH]cn2)cc1-c1cccc2ccccc12 | 32 nM
